Reference: ChEMBL document CHEMBL5500378, “Discovery of 4-benzylpiperazinequinoline BChE inhibitor that suppresses neuroinflammation for the treatment of Alzheimer's disease” (Eur J Med Chem, 2024)
Calls of active or inactive are those of the source. The calls are words filed in the database; no cut-off is given here.

Key:
[1] = Toxicity in ICR mouse model of Amyloid beta(1 to 42)-induced cognitive impairment assessed as body weight change at 10 mg/kg, IG for 12 days; format: organism-based; settings: in vivo, po, 288 h, time 12 day
[2] = Tmax in Sprague-Dawley rat at 10 mg/kg, IG measured for 2880 mins by LC-MS/MS analysis; format: ADME, organism-based; settings: in vivo, po
[3] = system: Mus musculus; experiment: Anti-inflammatory activity in ICR mouse model assessed as reduction in brain IL-1beta level at 10 mg/kg, IG pretreated for 10 days followed by LPS treatment for 4 days by ELISA; format: functional, organism-based; settings: time 14.0 day
[4] = target: Cholinesterase (Equus caballus, UniProt P81908); experiment: Inhibition of equine serum BChE using BTC as substrate incubated for 2 mins by Ellman's method; format: cell-free
[5] = system: Mus musculus; experiment: Improvement of cognition in ICR mouse model of Amyloid beta(1 to 42)-induced cognitive impairment at 10 mg/kg, IG for 12 days by Moris water maze test; format: functional, organism-based; settings: time 12.0 day
[6] = system: BV-2; experiment: Anti-inflammatory activity against mouse BV-2 cells assessed as decrease in LPS-induced IFN-gamma level at 2 to 6 uM preincubated for 1 hr followed by LPS addition and incubated overnight by ELISA; format: functional, cell-based; settings: dose 2-6 µM
[7] = Half life in brain of ICR mouse at 10 mg/kg, IG measured at 10 to 240 mins by LC-MS/MS analysis; format: ADME, organism-based; settings: po, time 10-240 min
[8] = system: Mus musculus; experiment: Anti-inflammatory activity in ICR mouse model assessed as reduction in brain TNF-alpha level at 10 mg/kg, IG pretreated for 10 days followed by LPS treatment for 4 days by ELISA; format: functional, organism-based; settings: time 14.0 day
[9] = Tmax in Sprague-Dawley rat at 10 mg/kg, iv measured for 2880 mins by LC-MS/MS analysis; format: ADME, organism-based; settings: in vivo
[10] = Drug concentration in brain of ICR mouse at 10 mg/kg, IG measured at about 22 mins by LC-MS/MS analysis; format: ADME, organism-based; settings: po, read-out: Ct
[11] = AUC (0 to infinity) in Sprague-Dawley rat at 10 mg/kg, iv measured for 2880 mins by LC-MS/MS analysis; format: ADME, organism-based; settings: in vivo
[12] = AUC (0 to t) in Sprague-Dawley rat at 10 mg/kg, IG measured for 2880 mins by LC-MS/MS analysis; format: ADME, organism-based; settings: in vivo, po
[13] = Toxicity in ICR mouse assessed as body weight change administered orally for 14 days consecutively; settings: in vivo, po, 336 h, time 14 day
[14] = system: Mus musculus; experiment: Anti-inflammatory activity in ICR mouse model assessed as reduction in trajectory confusion at 10 mg/kg, IG pretreated for 10 days followed by LPS treatment for 4 days by Moris water maze test; format: functional, organism-based; settings: time 14.0 day
[15] = system: BV-2; experiment: Inhibition of ROS production in Amyloid beta(1 to 42)-induced neuronal damage in mouse BV-2 cells assessed as decrease in green fluorescence intensity at 5 uM by microscopic analysis; format: functional, cell-based
[16] = Tmax in plasma of ICR mouse at 10 mg/kg, IG measured at 10 to 240 mins by LC-MS/MS analysis; format: ADME, organism-based; settings: in vivo, po, time 10-240 min
[17] = Toxicity in ICR mouse model of Amyloid beta(1 to 42)-induced cognitive impairment assessed as change in body appearance at 10 mg/kg, IG for 12 days; format: organism-based; settings: in vivo, po, 288 h, time 12 day
[18] = AUC (0 to infinity) in Sprague-Dawley rat at 10 mg/kg, IG measured for 2880 mins by LC-MS/MS analysis; format: ADME, organism-based; settings: in vivo, po
[19] = Cmax in Sprague-Dawley rat at 10 mg/kg, iv measured for 2880 mins by LC-MS/MS analysis; format: ADME, organism-based; settings: in vivo
[20] = Metabolic stability in human liver microsomes assessed as half life at 2 uM incubated for 60 mins by LC-MS/MS analysis; format: ADME, Microsome
[21] = system: Mus musculus; experiment: Anti-inflammatory activity in ICR mouse model assessed as shorter platform latency at 10 mg/kg, IG pretreated for 10 days followed by LPS treatment for 4 days by Moris water maze test; format: functional, organism-based; settings: time 14.0 day
[22] = system: PC-12; experiment: Neuroprotective activity against H2O2-induced neuronal damage in rat PC12 cells assessed as increase in cell viability pretreated for 1 hr followed by H2O2 addition measured after 24 hrs by MTT assay; format: functional, cell-based; settings: dose <= 20.0 µM, time 25.0 hrs
[23] = Half life in Sprague-Dawley rat at 10 mg/kg, IG measured for 2880 mins by LC-MS/MS analysis; format: ADME, organism-based; settings: in vivo, po
[24] = system: PC-12; experiment: Neuroprotective activity against H2O2-induced neuronal damage in rat PC12 cells assessed as increase in cell viability at 20 uM pretreated for 1 hr followed by H2O2 addition measured after 24 hrs by MTT assay relative to control; format: functional; settings: time 25 hrs
[25] = Neurotoxicity against mouse BV-2 cells by MTT assay; format: toxicity, cell-based
[26] = system: SH-SY5Y; experiment: Neuroprotective activity against Amyloid beta(1 to 42)-induced neuronal damage in human SH-SY5Y cells assessed as increase in cell survival at 1 to 10 uM pretreated for 1 hr followed by Amyloid beta(1 to 42) addition measured after 24 hrs by MTT assay; format: functional, cell-based; settings: dose 1-10 µM, time 25.0 hrs
[27] = Half life in Sprague-Dawley rat at 10 mg/kg, iv measured for 2880 mins by LC-MS/MS analysis; format: ADME, organism-based; settings: in vivo, 48 h
[28] = Tmax in brain of ICR mouse at 10 mg/kg, IG measured at 10 to 240 mins by LC-MS/MS analysis; format: ADME, organism-based; settings: po, time 10-240 min
[29] = Oral bioavailability in Sprague-Dawley rat at 10 mg/kg, IG or 10 mg/kg, iv measured for 2880 mins by LC-MS/MS analysis; format: ADME, organism-based; settings: in vivo
[30] = Ratio of AUC in brain to plasma of ICR mouse at 10 mg/kg, IG measured at 10 to 240 mins by LC-MS/MS analysis; format: ADME, organism-based; settings: po, time 10-240 min
[31] = Cmax in plasma of ICR mouse at 10 mg/kg, IG measured at 10 to 240 mins by LC-MS/MS analysis; format: ADME, organism-based; settings: in vivo, po, time 10-240 min
[32] = system: BV-2; experiment: Anti-inflammatory activity against mouse BV-2 cells assessed as decrease in LPS-induced IL-6 level at 2 to 6 uM preincubated for 1 hr followed by LPS addition and incubated overnight by ELISA; format: functional, cell-based; settings: dose 2-6 µM
[33] = system: L02; experiment: Cytotoxicity against human L02 cells by MTT assay; format: toxicity, cell-based
[34] = target: Cholinesterase (Homo sapiens, UniProt P06276); experiment: Inhibition of human BChE using BTC as substrate incubated for 2 mins by Ellman's method
[35] = Toxicity in ICR mouse assessed as abnormal behaviour administered orally; settings: in vivo, po
[36] = system: BV-2; experiment: Anti-inflammatory activity against mouse BV-2 cells assessed as decrease in LPS-induced IL-1beta level at 5 uM preincubated for 1 hr followed by LPS addition and incubated overnight by immunofluorescence based analysis; format: functional, cell-based
[37] = system: BV-2; experiment: Inhibition of ROS production in LPS-induced mouse BV-2 cells assessed as decrease in green fluorescence intensity at 2.5 to 10 uM pretreated for 1 hr followed by LPS addition and incubated overnight by DCFH-DA staining based analysis; format: functional, cell-based; settings: dose 2.5-10 µM
[38] = MRT (infinity) in Sprague-Dawley rat at 10 mg/kg, iv measured for 2880 mins by LC-MS/MS analysis; format: ADME, organism-based; settings: in vivo, 48 h

Chain of Cholinesterase (Equus caballus, UniProt P81908) (P81908 whole entry): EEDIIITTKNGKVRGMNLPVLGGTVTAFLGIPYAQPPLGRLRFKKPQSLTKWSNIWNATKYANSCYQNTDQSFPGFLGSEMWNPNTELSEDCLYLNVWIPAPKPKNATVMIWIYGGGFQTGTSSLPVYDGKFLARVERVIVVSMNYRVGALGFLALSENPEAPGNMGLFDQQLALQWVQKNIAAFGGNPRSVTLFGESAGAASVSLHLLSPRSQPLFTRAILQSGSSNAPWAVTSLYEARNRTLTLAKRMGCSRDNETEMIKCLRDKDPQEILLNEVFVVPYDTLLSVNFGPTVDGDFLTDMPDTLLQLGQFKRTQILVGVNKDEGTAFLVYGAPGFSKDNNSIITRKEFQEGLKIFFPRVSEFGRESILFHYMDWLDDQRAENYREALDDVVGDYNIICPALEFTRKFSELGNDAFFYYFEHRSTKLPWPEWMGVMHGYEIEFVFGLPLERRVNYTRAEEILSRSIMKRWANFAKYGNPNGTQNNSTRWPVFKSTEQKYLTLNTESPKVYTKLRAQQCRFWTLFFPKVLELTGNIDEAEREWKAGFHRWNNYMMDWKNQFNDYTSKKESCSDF
Chain of Cholinesterase (Homo sapiens, UniProt P06276) (P06276 whole entry): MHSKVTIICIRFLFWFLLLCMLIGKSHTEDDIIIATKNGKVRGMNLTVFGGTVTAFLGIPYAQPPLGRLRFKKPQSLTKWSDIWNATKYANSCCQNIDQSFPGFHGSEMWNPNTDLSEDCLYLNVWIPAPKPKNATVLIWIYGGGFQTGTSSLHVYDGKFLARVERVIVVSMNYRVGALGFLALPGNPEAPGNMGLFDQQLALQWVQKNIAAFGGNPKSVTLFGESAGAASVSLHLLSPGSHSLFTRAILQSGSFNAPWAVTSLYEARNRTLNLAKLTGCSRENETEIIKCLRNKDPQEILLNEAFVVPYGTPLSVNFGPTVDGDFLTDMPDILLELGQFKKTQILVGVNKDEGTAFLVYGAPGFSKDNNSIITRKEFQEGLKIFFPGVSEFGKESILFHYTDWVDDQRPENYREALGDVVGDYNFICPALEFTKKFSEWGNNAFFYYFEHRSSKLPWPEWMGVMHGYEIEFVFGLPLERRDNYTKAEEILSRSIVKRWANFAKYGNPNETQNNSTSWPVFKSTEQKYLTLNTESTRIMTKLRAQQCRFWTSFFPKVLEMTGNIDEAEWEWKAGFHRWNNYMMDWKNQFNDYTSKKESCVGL

## CCCc1ccc(C(=O)Nc2cnc3ccccc3c2N2CCN(Cc3ccccc3)CC2)cc1
[1]
  Activity: Non-Toxic
[2]
  Tmax: 1 h
[3]
  Activity: Active
[4]
  IC50: 60 nM
[5]
  Activity: Active
[6]
  Activity: Active
[7]
  half-life: 1.6 h
[8]
  Activity: Active
[9]
  Tmax: 1 min
[10]
  concentration at 22 min: 554 ng/mL
[11]
  AUC(0-inf): 6070 ng·h/mL
[12]
  AUC(0-t) at 48 h: 5650 ng·h/mL
[13]
  Activity: Non-Toxic
[14]
  Activity: Active
[15]
  inhibition: Active
[16]
  Tmax: 0.3 h
[17]
  Activity: Non-Toxic
[18]
  AUC(0-inf): 5650 ng·h/mL
[19]
  Cmax: 7120 ng/mL
[20]
  half-life at 2 µM: 0.762 h
[21]
  Activity: Active
[22]
  Activity: Dose-Dependent Effect
[23]
  half-life: 2.81 h
[24]
  Activity: >80%
[25]
  Activity: Not Active
[26]
  Activity: Active
[27]
  t1/2: 5.047 h
[28]
  Tmax: 0.367 h
[29]
  bioavailability: 92.3%
[30]
  Kp: 1.96
[31]
  Cmax: 238.2 ng/mL
[32]
  Activity: Active
[33]
  Activity: Non-Toxic
[34]
  IC50: 160 nM
[35]
  Activity: Non-Toxic
[36]
  Activity: Active
[37]
  inhibition: Active
[38]
  MRT: 16.45 h
